Laboratory results published in patent US10827969B2, “Breath test device and method” (EXALENZ BIOSCIENCE LTD., priority 2005, dated 2020).

Legend:
[1] = parameters: species or system subject; conditions: in vivo
Excerpt: One of the most common methods for determining the rate of metabolism of methacetin is to analyze the rate of metabolism of the methoxy group (CH3O) of methacetin to carbon dioxide, which is excreted in exhaled breath. To distinguish the carbon dioxide derived from methacetin from all other sources of carbon dioxide, the methoxy group is labeled with ^13C, a stable isotope of carbon. Thus, all the CO2 derived from methacetin will contain ^13C (^13CO2) in contrast to all other sources of CO2, which will contain approximately 99%^12C, and 1% ^13C, the naturally abundant isotope. Thus, the rate of excretion of ^13CO2 (normalized to ^12CO2) above background following the administration of methacetin-methoxy-^13C indicates its rate of metabolism, which relates to the hepatic cell “health” and to the functional mass of the liver.
The curve depicts the rate of metabolism of ^13C-Methacetin in % dose/hour as measured in breath. The peak of the curve (marked by the arrow) appears after 0.4 h (hours). The PDR peak height is approximately at 23.5% dose/hour.
The following are two examples that illustrate this phenomenon. […]

[2] = as known in the art; cited from earlier work
[3] = Decomposition of methacetin on heating in solution; type: physicochemical; conditions: heating at 80° C. for three hours
Protocol: There is thus provided, according to some embodiments, a method of controlled dissolution of methacetin. Methacetin seems to be stable after short term warming to <80° C. in solution. […] Therefore, according to an embodiment of the invention, a solution of methacetin may be prepared by dissolution in warm water.

[4] = Two weeks stability of methacetin formulations (HPLC assay, appearance); type: physicochemical; conditions: 37-38 mg/100 mL methanol, room temperature, at least one week
Protocol: In the first three items, formulations containing 75 mg methacetin/200 mL solvent were prepared: 2-1. Formulation-1: 76.04 mg methacetin; 62.94 mg SLS; water to final volume of 200 mL. 2-2. Formulation-2: 75.87 mg methacetin; 4 mL PPG-400; water to final volume of 200 mL. 2-3. Formulation-3: 76.66 mg methacetin; 4 mL tween-80; water to final volume of 200 mL. The first three formulated solutions were stored at room temperature protected from light. The fourth solution was stored in an incubator for 3 months at 40° C. On each testing interval, the formulated samples were analyzed according to the following method: [table] The samples were diluted to a concentration of about 37 ppm (37 mg in 1000 ml) and analyzed against a standard solution at the same concentration. The standard was provided by the sponsor (Adrich 428264 batch: UI 2335). Purity of 100% was used in calculations. The methacetin sample that was used for the formulations was also used as a standard for the HPLC determination. […] The stock solution was diluted ×10 in mobile phase solution before the HPLC analysis. The assay was conducted according to Analyst SOP No. 05-001-03, and the HPLC method that was provided by the sponsor.

[5] = Conditions for dissolving methacetin: dissolving time; type: physicochemical; conditions: room temperature (approximately 25° C.)
Protocol: It was evaluated whether the thermal cycle for dissolving the API (active pharmaceutical ingredient, such as methacetin) can be eliminated from or at least lowered in the process. Cold vortexing, as well as the assistance of excipients acceptable by the international pharmaceutical regulations and capable of assisting in improving the dissolution of the API, were utilized.
Experimentation trials were performed, in order to eliminate the heating stage while dissolving the API (methacetin) in purified water.
Therefore, alternative directions for improving the API dissolution were tried. Solvents capable of dissolving the API and approvable for utilization in pharmaceutical preparations were utilized for this task.
30% by volume of the purified water of the preparation was replaced by the alternative solvent. The dissolving time of each preparation was recorded.
Therefore, a gradient of temperature was utilized to completely dissolve the methacetin in the preparation. An in-process control testing was applied at this stage. A UV specific absorbance analytical method, without further manipulation of the sample, was utilized for confirming that the solid has been completely dissolved in the preparation.

| SMILES | PDR peak height [1] | time of appearance of the PDR peak [1] | hepatic extraction ratio [2] | methacetin decomposed [3] | stability of methacetin stock solution [4] | dissolution in water [5] |
| --- | --- | --- | --- | --- | --- | --- |
| CC(=O)Nc1ccc(O[13CH3])cc1 [^13C-Methacetin, methacetin-methoxy-^13C] | ~23.5 % dose/hour | 0.4 h | – | – | – | – |
| COc1ccc(NC(C)=O)cc1 [methacetin, N-(4-Methoxyphenyl)acetamide] | – | – | more than 0.8 | 0.018% | stable | does not dissolve well |
